{"source": "patent US7638509B2", "about": "“Diene compounds and formulations” (priority 2003, dated 2009)", "key": {"AR": {"target": "T1, AR (Homo sapiens, UniProt P10275, T878A)", "T1 construct": "LNCaP without transfection; endogenous in cells; host or cells: LNCaP", "T1 sequence (P10275 1-920 T878A)": "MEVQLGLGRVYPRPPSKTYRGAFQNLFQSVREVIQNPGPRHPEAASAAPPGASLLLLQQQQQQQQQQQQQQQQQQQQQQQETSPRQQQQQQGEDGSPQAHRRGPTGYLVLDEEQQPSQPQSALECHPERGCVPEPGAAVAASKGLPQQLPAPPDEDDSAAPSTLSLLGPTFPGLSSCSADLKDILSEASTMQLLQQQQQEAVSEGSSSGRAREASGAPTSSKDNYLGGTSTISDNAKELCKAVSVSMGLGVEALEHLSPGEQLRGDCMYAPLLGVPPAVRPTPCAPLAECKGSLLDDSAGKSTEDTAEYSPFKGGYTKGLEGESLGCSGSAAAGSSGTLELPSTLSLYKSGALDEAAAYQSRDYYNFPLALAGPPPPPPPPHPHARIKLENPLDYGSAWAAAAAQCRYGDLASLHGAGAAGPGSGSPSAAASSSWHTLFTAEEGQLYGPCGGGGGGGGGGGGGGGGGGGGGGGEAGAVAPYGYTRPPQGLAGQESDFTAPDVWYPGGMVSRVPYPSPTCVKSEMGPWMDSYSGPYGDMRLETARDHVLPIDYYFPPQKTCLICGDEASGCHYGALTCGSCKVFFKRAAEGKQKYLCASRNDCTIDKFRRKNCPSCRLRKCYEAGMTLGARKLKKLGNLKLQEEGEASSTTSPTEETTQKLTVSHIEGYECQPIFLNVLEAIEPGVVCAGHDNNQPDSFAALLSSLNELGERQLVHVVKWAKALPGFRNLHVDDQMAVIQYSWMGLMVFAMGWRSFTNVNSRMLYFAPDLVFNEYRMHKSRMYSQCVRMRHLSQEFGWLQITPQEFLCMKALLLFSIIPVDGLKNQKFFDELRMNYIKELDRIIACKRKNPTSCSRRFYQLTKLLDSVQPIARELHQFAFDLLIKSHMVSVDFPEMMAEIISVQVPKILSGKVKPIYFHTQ", "assay": "Adiol-induced AR transcription, MMTV-Luc in LNCaP cells", "assay_type": "cell-based", "conditions": "2.5 nM Adiol, compound at 1 μM", "method": "Cell Culture, Transfection, and Reporter Gene Assay. The human prostate cancer cell lines, LNCaP, PC-3, and DU145, and non-prostate cancer cell line COS-1 were maintained in RPMI or Dulbecco's modified Eagle's medium (DMEM) (Life Technologies) supplemented with 10% fetal bovine serum (FBS). Transfections and luciferase (Luc) assays were performed as previously described (Miyamoto, H., Yeh, S., Wilding, G. & Chang, C. (1998) Proc. Natl. Acad. Sci. USA 95, 7379-7384; Miyamoto, H., Rahman, M., Takatera, H., Kang, H.-Y., Yeh, S., Chang, H.-C., Nishimura, K., Fujimoto, N. & Chang, C. (2002) J. Biol. Chem. 277, 4609-4617). Briefly, cells seeded to reach a density of 50-60% confluence in 12 well tissue culture plates were transfected with 1.5 μg of DNA according to “SuperFect transfection” instructions (Qiagen). After 2-3 h incubation, cells were treated with medium supplemented with charcoal-stripped FBS containing either ethanol or ligands for 24 h. The cells were then harvested and whole cell extracts were used for Luc assay. The Luc activity was determined using a Dual-Luciferase Reporter Assay System (Promega) and luminometer.\nEffect of ADEK on AR Transcription. […] (set as 100%). Values were obtained from the mean±SD of at least three determinations."}, "[1]": {"target": "T2, glucocorticoid receptor (GR) (Homo sapiens, UniProt P04150)", "T2 construct": "expressed in transfected cells; host or cells: PC-3", "T2 sequence (P04150 1-777)": "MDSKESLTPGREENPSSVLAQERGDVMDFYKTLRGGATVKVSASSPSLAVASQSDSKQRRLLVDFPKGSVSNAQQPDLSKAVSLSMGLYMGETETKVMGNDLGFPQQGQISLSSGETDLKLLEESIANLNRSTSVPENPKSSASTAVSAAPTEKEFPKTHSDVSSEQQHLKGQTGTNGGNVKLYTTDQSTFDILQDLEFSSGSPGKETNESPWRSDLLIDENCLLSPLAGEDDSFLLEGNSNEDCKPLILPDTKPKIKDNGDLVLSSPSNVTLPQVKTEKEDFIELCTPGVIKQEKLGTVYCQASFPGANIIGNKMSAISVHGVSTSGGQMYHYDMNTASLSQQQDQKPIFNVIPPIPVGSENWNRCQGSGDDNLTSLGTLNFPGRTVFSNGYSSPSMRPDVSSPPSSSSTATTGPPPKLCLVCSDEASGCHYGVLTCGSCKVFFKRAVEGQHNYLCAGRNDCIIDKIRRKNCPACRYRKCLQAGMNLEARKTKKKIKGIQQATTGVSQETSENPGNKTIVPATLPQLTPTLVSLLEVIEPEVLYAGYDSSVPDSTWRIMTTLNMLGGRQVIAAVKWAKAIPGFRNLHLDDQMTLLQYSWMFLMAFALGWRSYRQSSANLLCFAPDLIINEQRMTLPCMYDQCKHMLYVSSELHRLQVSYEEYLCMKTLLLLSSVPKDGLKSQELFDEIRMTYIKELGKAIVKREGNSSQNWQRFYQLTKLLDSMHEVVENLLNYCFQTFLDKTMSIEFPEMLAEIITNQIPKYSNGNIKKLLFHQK", "assay": "Steroid hormone specificity, GR/MMTV-Luc in PC-3 cells", "assay_type": "cell-based", "conditions": "PC-3, GR/MMTV-Luc, ADEK at 0.01 mM, 0.1 mM and 1.0 mM, 24 h", "method": "(§1) Cell Culture, Transfection, and Reporter Gene Assay. The human prostate cancer cell lines, LNCaP, PC-3, and DU145, and non-prostate cancer cell line COS-1 were maintained in RPMI or Dulbecco's modified Eagle's medium (DMEM) (Life Technologies) supplemented with 10% fetal bovine serum (FBS). Transfections and luciferase (Luc) assays were performed as previously described (Miyamoto, H., Yeh, S., Wilding, G. & Chang, C. (1998) Proc. Natl. Acad. Sci. USA 95, 7379-7384; Miyamoto, H., Rahman, M., Takatera, H., Kang, H.-Y., Yeh, S., Chang, H.-C., Nishimura, K., Fujimoto, N. & Chang, C. (2002) J. Biol. Chem. 277, 4609-4617). Briefly, cells seeded to reach a density of 50-60% confluence in 12 well tissue culture plates were transfected with 1.5 μg of DNA according to “SuperFect transfection” instructions (Qiagen). […] The Luc activity was determined using a Dual-Luciferase Reporter Assay System (Promega) and luminometer.\n(§2) Steroid Hormone Specificity of ADEK. To characterize the steroid hormone activity of ADEK, PC-3 cells were transfected with steroid receptor/reporter (progesterone receptor (PR)/MMTV-Luc, glucocorticoid receptor (GR)/MMTV-Luc, or estrogen receptor (ER)/ERE-Luc) and analyzed for expression of the Luc reporter gene. […] The Luc activity was measured relative to that of ETOH treatment (set as 1-fold). […]"}, "estrogen receptor (ER)": {"tested_on": "estrogen receptor (ER)", "assay": "Steroid hormone specificity, ER/ERE-Luc in PC-3 cells", "assay_type": "cell-based, human", "conditions": "PC-3, ER/ERE-Luc, ADEK at 0.01 mM, 0.1 mM and 1.0 mM, 24 h", "method": "as §1, §2"}}}
{"compound": "CC(=O)O[C@H]1C=C[C@@]2(C)C(=CC[C@@H]3[C@@H]2CC[C@@]2(C)[C@H]3CCC23OCCO3)C1", "note": "[ADEK, 3β-acetoxy-17,17-ethylenedioxyandrosta-1,5-diene]", "values": [{"measurement": "repression of Adiol-induced AR transcription", "setting": "AR", "result": "~58", "unit": "%"}, {"measurement": "melting point", "result": "105 to 106", "unit": "°C"}, {"measurement": "glucocorticoid activity (in words)", "setting": "[1]", "result": "no significant"}, {"measurement": "estrogenic activity (in words)", "setting": "estrogen receptor (ER)", "result": "some estrogenic activity"}]}
